The text below walks through data of patent US11234437B2 (priority 2017, dated 2022).

Data set [1] has as its system Magnaporthe grisea (Pyricularia oryzae). Put plainly: microbe, parasite or virus in culture. In kind it is cell-based. The note with it: read-out: control of Magnaporthe grisea.
For data set [2], the system named is Gaeumannomyces graminis. As to the kind of experiment: Gaeumannomyces graminis / liquid culture (take-all of cereals). It counts as cell-based. The settings on record: compared to untreated control. The procedure: Mycelial fragments of the fungus from cryogenic storage were directly mixed into nutrient broth (PDB potato dextrose broth). After placing a (DMSO) solution of test compound into a microtiter plate (96-well format), the nutrient broth containing the fungal spores is added. The test plates are incubated at 24° C. and the inhibition of growth is determined photometrically 4-5 days after application.

For data set [3], the system named is Monographella nivalis (Microdochium nivale). As to the kind of experiment: Monographella nivalis (Microdochium nivale) / liquid culture (foot rot cereals). It counts as cell-based. The note with it: compared to untreated control. The procedure:
Monographella nivalis (Microdochium nivale)/Liquid Culture (Foot Rot Cereals)
Conidia of the fungus from cryogenic storage are directly mixed into nutrient broth (PDB potato dextrose broth). After placing a (DMSO) solution of test compound into a microtiter plate (96-well format), the nutrient broth containing the fungal spores is added. The test plates are incubated at 24° C. and the inhibition of growth is determined photometrically 4-5 days after application.

The test system of data set [4] is Gibberella zeae (Fusarium graminearum). As to the kind of experiment: whole plant or invertebrate. The note with it: in Triticum aestivum, read-out: control of Gibberella zeae. In kind it is in vivo.

`CC(C)C[C@@](C)(Cc1ccccc1)NC(=O)c1cnc2c(F)cccc2c1` [Compound F-1, N-[(1S)-1-benzyl-1,3-dimethyl-butyl]-8-fluoro-quinoline-3-carboxamide]: the inhibition of growth at 20 ppm in data set [1], in data set [2] and in data set [3] was ≥ 80% in each case.
Turning to `CC(C)C[C@](C)(Cc1ccccc1)NC(=O)c1cnc2c(F)cccc2c1` [Compound F-2, N-[(1R)-1-benzyl-1,3-dimethyl-butyl]-8-fluoro-quinoline-3-carboxamide], the inhibition of growth at 20 ppm in data set [1], in data set [2] and in data set [3] was ≥ 80% throughout.
Take `CC(C)C[C@@](C)(Cc1ccccc1)NC(=O)c1cnc2ccccc2c1` [Compound F-3, N-[(1S)-1-benzyl-1,3-dimethyl-butyl]quinoline-3-carboxamide]: the inhibition of growth at 20 ppm in data set [1], in data set [2] and in data set [3] was ≥ 80% throughout.
With `CC(C)C[C@](C)(Cc1ccccc1)NC(=O)c1cnc2ccccc2c1` [Compound F-4, N-[(1R)-1-benzyl-1,3-dimethyl-butyl]quinoline-3-carboxamide], the inhibition of growth at 20 ppm in data set [1] and in data set [2] was ≥ 80% each time.
On to `C=C(C)C[C@](C)(Cc1ccccc1)NC(=O)c1cnc2c(F)cccc2c1` [Compound F-5, N-[(1R)-1-benzyl-1,3-dimethyl-but-3-enyl]-8-fluoro-quinoline-3-carboxamide], for which, in data set [4], the pest or weed control at 200 ppm is ≥ 80%. The inhibition of growth at 20 ppm in data set [1] and in data set [3] was ≥ 80% each time.
In the case of `C=C(C)C[C@@](C)(Cc1ccccc1)NC(=O)c1cnc2c(F)cccc2c1` [Compound F-6, N-[(1S)-1-benzyl-1,3-dimethyl-but-3-enyl]-8-fluoro-quinoline-3-carboxamide], the pest or weed control at 200 ppm in data set [4] is ≥ 80%. Moreover, the inhibition of growth at 20 ppm in data set [2] and in data set [3] was ≥ 80% in each case.
For the molecule `C[C@](Cc1ccccc1)(CC(F)(F)F)NC(=O)c1cnc2c(F)cccc2c1` [Compound F-7, N-[(1S)-1-benzyl-3,3,3-trifluoro-1-methyl-propyl]-8-fluoro-quinoline-3-carboxamide], in data set [4], the pest or weed control at 200 ppm is ≥ 80%. In addition, the inhibition of growth at 20 ppm in data set [1] is ≥ 80%.
In the case of `C[C@@](Cc1ccccc1)(CC(F)(F)F)NC(=O)c1cnc2c(F)cccc2c1` [Compound F-8, N-[(1R)-1-benzyl-3,3,3-trifluoro-1-methyl-propyl]-8-fluoro-quinoline-3-carboxamide], the inhibition of growth at 20 ppm in data set [1] is ≥ 80%.
Regarding `CC(C)(C)C[C@@](C)(Cc1ccccc1)NC(=O)c1cnc2c(F)cccc2c1` [Compound F-9, N-[(1S)-1-benzyl-1,3,3-trimethyl-butyl]-8-fluoro-quinoline-3-carboxamide], the pest or weed control at 200 ppm in data set [4] is ≥ 80%. The inhibition of growth at 20 ppm in data set [2] and in data set [3] was ≥ 80% throughout.
For the molecule `CC(C)(C)C[C@](C)(Cc1ccccc1)NC(=O)c1cnc2c(F)cccc2c1` [Compound F-10, N-[(1R)-1-benzyl-1,3,3-trimethyl-butyl]-8-fluoro-quinoline-3-carboxamide], the pest or weed control at 200 ppm in data set [4] was ≥ 80%. Further, the inhibition of growth at 20 ppm in data set [2] is ≥ 80%.
For the molecule `C=C(C)C[C@](C)(Cc1ccccc1)NC(=O)c1cnc2c(F)c(F)ccc2c1` [Compound F-11, N-[(1R)-1-benzyl-1,3-dimethyl-but-3-enyl]-7,8-difluoro-quinoline-3-carboxamide], the pest or weed control at 200 ppm in data set [4] is ≥ 80%. Besides, in data set [1], the inhibition of growth at 20 ppm was ≥ 80%.
Regarding `C=C(C)C[C@@](C)(Cc1ccccc1)NC(=O)c1cnc2c(F)c(F)ccc2c1` [Compound F-12, N-[(1S)-1-benzyl-1,3-dimethyl-but-3-enyl]-7,8-difluoro-quinoline-3-carboxamide], the inhibition of growth at 20 ppm in data set [1] and in data set [3] was ≥ 80% in each case.
As to `CC(C)C[C@](C)(Cc1ccccc1)NC(=O)c1cnc2c(F)c(F)ccc2c1` [Compound F-14, N-[(1R)-1-benzyl-1,3-dimethyl-butyl]-7,8-difluoro-quinoline-3-carboxamide], the inhibition of growth at 20 ppm in data set [1] was ≥ 80%.
In the case of `CC(C)(F)C[C@@](C)(Cc1ccccc1)NC(=O)c1cnc2c(F)cccc2c1` [Compound F-15, N-[(1R)-1-benzyl-3-fluoro-1,3-dimethyl-butyl]-8-fluoro-quinoline-3-carboxamide], the pest or weed control at 200 ppm in data set [4] is ≥ 80%. In addition, the inhibition of growth at 20 ppm in data set [1] and in data set [3] was ≥ 80% in each case.
In the case of `CC(C)(F)C[C@](C)(Cc1ccccc1)NC(=O)c1cnc2c(F)cccc2c1` [Compound F-16, N-[(1S)-1-benzyl-3-fluoro-1,3-dimethyl-butyl]-8-fluoro-quinoline-3-carboxamide], in data set [4], the pest or weed control at 200 ppm is ≥ 80%. Moreover, the inhibition of growth at 20 ppm in data set [1] and in data set [3] was ≥ 80% in each case.
Turning to `Cc1cccc2cc(C(=O)N[C@](C)(Cc3ccccc3)CC(F)(F)F)cnc12` [Compound F-18, N-[(1R)-1-benzyl-3,3,3-trifluoro-1-methyl-propyl]-8-methyl-quinoline-3-carboxamide], the inhibition of growth at 20 ppm in data set [1] is ≥ 80%.
Same read-out and setting: with `C[C@@](Cc1ccccc1)(CC(F)(F)F)NC(=O)c1cnc2c(Cl)cccc2c1` [Compound F-20, N-[(1R)-1-benzyl-3,3,3-trifluoro-1-methyl-propyl]-8-chloro-quinoline-3-carboxamide] the figure was ≥ 80%.
As for `C[C@@](Cc1ccccc1)(CC(F)(F)F)NC(=O)c1cnc2c(F)c(F)ccc2c1` [Compound F-22, N-[(1R)-1-benzyl-3,3,3-trifluoro-1-methyl-propyl]-7,8-difluoro-quinoline-3-carboxamide], the pest or weed control at 200 ppm in data set [4] was ≥ 80%. For the same molecule, the inhibition of growth at 20 ppm in data set [1] is ≥ 80%.
Turning to `CC(F)(F)C[C@@](C)(Cc1ccccc1)NC(=O)c1cnc2c(F)cccc2c1` [Compound F-31, N-[(1R)-1-benzyl-3,3-difluoro-1-methyl-butyl]-8-fluoro-quinoline-3-carboxamide], the pest or weed control at 200 ppm in data set [4] is ≥ 80%. The inhibition of growth at 20 ppm in data set [1] and in data set [3] was ≥ 80% each time.
One may read the melting point as the temperature of the solid-liquid transition. The molecule `CC1(CC(C)(Cc2ccccc2)NC(=O)c2cnc3c(F)cccc3c2)CC1` (stereo not drawn) [X.003, N-[1-benzyl-1-methyl-2-(1-methylcyclopropyl)ethyl]-8-fluoro-quinoline-3-carboxamide] displayed a melting point of 126 to 129 °C. The pest or weed control at 200 ppm in data set [4] was ≥ 80%. In addition, the inhibition of growth at 20 ppm in data set [1] is ≥ 80%. The inhibition of growth at 20 ppm in data set [2] is ≥ 80%.
For `Cc1cccc2cc(C(=O)NC(C)(Cc3ccccc3)CC(F)(F)F)cnc12` (stereo not drawn) [X.004, N-(1-benzyl-3,3,3-trifluoro-1-methyl-propyl)-8-methyl-quinoline-3-carboxamide], the melting point lay within 120 to 123 °C. In addition, the pest or weed control at 200 ppm in data set [4] is ≥ 80%. Also, the inhibition of growth at 20 ppm in data set [1] is ≥ 80%. Besides, the inhibition of growth at 20 ppm in data set [3] is ≥ 80%.
On to `CC(Cc1ccccc1)(CC(F)(F)F)NC(=O)c1cnc2c(Cl)cccc2c1` (stereo not drawn) [X.005, N-(1-benzyl-3,3,3-trifluoro-1-methyl-propyl)-8-chloro-quinoline-3-carboxamide], for which the melting point is 141 to 144 °C. In data set [4], the pest or weed control at 200 ppm is ≥ 80%. Besides, the inhibition of growth at 20 ppm in data set [1] was ≥ 80%. Also, the inhibition of growth at 20 ppm in data set [3] was ≥ 80%.
For `C=C(C)CC(C)(Cc1ccccc1)NC(=O)c1cnc2c(F)cccc2c1` (stereo not drawn) [X.009, N-(1-benzyl-1,3-dimethyl-but-3-enyl)-8-fluoro-quinoline-3-carboxamide], the pest or weed control at 200 ppm in data set [4] was ≥ 80%. Further, the inhibition of growth at 20 ppm in data set [1], in data set [2] and in data set [3] was ≥ 80% throughout.
Molecule `C=C(C)CC(C)(Cc1ccccc1)NC(=O)c1cnc2c(F)c(F)ccc2c1` (stereo not drawn) [X.010, N-(1-benzyl-1,3-dimethyl-but-3-enyl)-7,8-difluoro-quinoline-3-carboxamide] had a melting point of 94 to 96 °C. In data set [4], the pest or weed control at 200 ppm was ≥ 80%. For the same molecule, in data set [1], the inhibition of growth at 20 ppm is ≥ 80%. In data set [3], the inhibition of growth at 20 ppm is ≥ 80%.
In the case of `CC(F)(F)CC(C)(Cc1ccccc1)NC(=O)c1cnc2c(F)cccc2c1` (stereo not drawn) [X.014, N-(1-benzyl-3,3-difluoro-1-methyl-butyl)-8-fluoro-quinoline-3-carboxamide], the pest or weed control at 200 ppm in data set [4] is ≥ 80%. The inhibition of growth at 20 ppm in data set [1] was ≥ 80%.
Regarding `CC(C)(F)CC(C)(Cc1ccccc1)NC(=O)c1cnc2c(F)cccc2c1` (stereo not drawn) [X.015, N-(1-benzyl-3-fluoro-1,3-dimethyl-butyl)-8-fluoro-quinoline-3-carboxamide], the pest or weed control at 200 ppm in data set [4] was ≥ 80%. The inhibition of growth at 20 ppm in data set [1] and in data set [3] was ≥ 80% in each case.
As for `CC(C)(C)CC(C)(Cc1ccccc1)NC(=O)c1cnc2c(F)cccc2c1` (stereo not drawn) [X.016, N-(1-benzyl-1,3,3-trimethyl-butyl)-8-fluoro-quinoline-3-carboxamide], the melting point lay within 48 to 50 °C. The pest or weed control at 200 ppm in data set [4] was ≥ 80%. Moreover, in data set [1], the inhibition of growth at 20 ppm was ≥ 80%. The inhibition of growth at 20 ppm in data set [3] is ≥ 80%.
